From patent US20220125877A1, “METHOD FOR TREATING COLORECTAL CANCER” (SUN YAT-SEN UNIVERSITY, priority 2019, published 2022)

Key:
LoVo cells = test: Azacitidine treatment: MATE1 expression and anti-proliferation effect of metformin; assay type: cell-based, human; conditions: FIGS. 16E-F
[1] = test system: KRAS (G13D) mutation SW48 cell line; test: as above; assay type: cell-based, human; conditions: FIGS. 16E-F

## Nc1ncn([C@@H]2O[C@H](CO)[C@@H](O)[C@H]2O)c(=O)n1 [azacitidine]
LoVo cells
  expression of MATE1: up-regulate the expression of MATE1
LoVo cells; with metformin
  effect on the anti-tumor proliferation effect of metformin: inhibiting the anti-tumor proliferation effect of metformin
[1]
  expression of MATE1: up-regulate the expression of MATE1
[1]; with metformin
  effect on the anti-tumor proliferation effect of metformin: inhibiting the anti-tumor proliferation effect of metformin
